Measurements published in US8962322B2, “Enhancers of induced pluripotent stem cell reprogramming” (City of Hope, priority 2012, dated 2015).

Key:
[1] = test system: mouse embryonic fibroblasts (MEFs); assay: iPSC derivation from 4F (OSKM)-transduced MEFs in mouse ESC media; assay type: cell-based
Experimental: The generation of iPSCs is a gradual process with relatively low efficiency. Since Oct4 is central to the reprogramming process (35, 36, 38), it was hypothesized that compounds that activate Oct4 transcription may facilitate iPSC generation by enhancing reprogramming efficiency. Reprogramming of mouse embryonic fibroblasts (MEFs) was performed with the 4F reprogramming quartet Oct4, Sox2, Klf4, and c-Myc, along with solvent control, OAC1 or its structural analogs OAC2 and OAC3. The same number of starting MEFs and the same viral stocks were used for each treatment. Two days after viral transduction, the 4F-transduced cells were seeded onto feeder cells in mouse ESC culture media, and this day was designated as day 0 (FIG. 2D). Compound treatment started on day 0 and lasted for 7 days. By counting the number of clones with ESC-like morphology at day 18, both OAC1 and its analogs OAC2 and OAC3 enhanced the 4F-induced reprogramming efficiency considerably. The number of colonies with ESC-like morphology (FIG. 2E) increased 2-fold or more in 4F plus OAC (4F+OAC) treatment, compared to the 4F treatment alone (FIG. 2F, Table 3).
iPSC Derivation in Mouse ESC Media: OG2/R26MEFs were seeded onto […] at the density of 4×10^4 cells per well in DMEM medium with 10% FBS, 0.1 mM non-essential amino acids (NEAA), and 0.1 mM L-glutamine, 24 hr before transduction. Freshly concentrated viruses of the four factors, Oct4, Sox2, c-Myc, and Klf4, were added to the cells. Two days after viral infection, the viral-transduced OG2/R26MEFs were split into new 6-well plates with irradiated MEF feeder cells and cultured in mouse ESC culture medium containing 15% ESC qualified FBS, 2 mM L-glutamine, 0.1 mM 2-mercaptoethanol, 0.1 mM NEAA, 1 mM sodium pyruvate and 1000 U/ml of leukemia inhibitory factor (LIF), and this day was defined as day 0. 1 μM of each compound (OAC1, OAC2, and OAC3) was added to the 4F-transduced cells at day 0 and treatment was continued for 1 week. When iPSC colonies emerged, these colonies were picked for expansion on irradiated MEF feeders in mouse ESC medium.

Sox2 = assay: RT-PCR of Sox2 mRNA in treated MEFs; assay type: cell-based, mouse; settings: versus vehicle
Experimental: MEFs were treated with vehicle control or OAC 1 to test whether OAC 1 activates endogenous Oct4 and Nanog gene transcription. […] Oct4, Sox2, and Nanog are central to the transcriptional regulatory hierarchy for ESC pluripotency, forming the core transcriptional regulatory circuitry in ESCs (37). […] OAC1 activated Sox2 mRNA expression, along with Oct4 and Nanog (FIG. 61).
RT-PCR analysis: Total RNA was purified with Trizol reagent (Invitrogen). Reverse transcription was performed with 1 μg of RNA using Omniscript® Reverse Transcription Kit (Qiagen). Quantitative PCR was performed using iTaq SYBR Green Supermix with Rox (Bio-rad) in Applied Biosystem Step one plus real-time PCR system. […]

luciferase = luciferase (Photinus pyralis, UniProt P08659); assay: inhibition of luciferase activity at 1 μM (applicant's observation)
luciferase, sequence (P08659 whole entry): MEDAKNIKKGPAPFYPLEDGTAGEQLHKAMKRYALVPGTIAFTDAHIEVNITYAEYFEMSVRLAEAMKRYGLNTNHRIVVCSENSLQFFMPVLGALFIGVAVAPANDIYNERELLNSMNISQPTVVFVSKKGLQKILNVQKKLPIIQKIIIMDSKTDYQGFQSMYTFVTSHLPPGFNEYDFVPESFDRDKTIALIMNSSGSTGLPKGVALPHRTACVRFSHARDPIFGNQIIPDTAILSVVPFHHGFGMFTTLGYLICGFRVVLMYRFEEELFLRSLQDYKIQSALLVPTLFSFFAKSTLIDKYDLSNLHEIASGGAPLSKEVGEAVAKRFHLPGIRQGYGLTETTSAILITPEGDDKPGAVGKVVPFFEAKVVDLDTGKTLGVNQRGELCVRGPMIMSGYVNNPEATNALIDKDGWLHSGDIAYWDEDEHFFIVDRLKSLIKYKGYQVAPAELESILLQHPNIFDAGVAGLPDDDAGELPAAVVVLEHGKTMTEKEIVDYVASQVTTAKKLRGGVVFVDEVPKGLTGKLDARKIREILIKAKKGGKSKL
Text: OAC1 and related analogs belong to a structural class of 5-substituted pyrrolo[2,3-b]pyridine- and indole-based benzamides. Very little is reported about their biological activities. […] However, in a different assay called ATLAS (any target ligand affinity screen), no inhibition was detected (49).

Q: How did the “advance of the appearance of putative iPSC colonies compared to 4F only reprogramming” value ([1]; 4F+OAC) turn out when `O=C(Nc1cc2cc[nH]c2cn1)c1ccccc1` [OAC1, N-(1H-6-azaindol-5-yl)benzamide] was run?
A: Its value is “about three to four”.

Q: And the Colony numbers ([1]; MEFs in mouse ESC media, OSKM, seeding 3 × 10^4, day 18, 1 μM compound)?
A: Its Colony numbers is 130.

Q: And the Reprogramming efficiency ([1]; MEFs in mouse ESC media, OSKM, seeding 3 × 10^4, day 18, colony numbers divided by seeding cell numbers)?
A: Its Reprogramming efficiency is 0.43%.

Q: What about the “Sox2 mRNA expression” value (Sox2) of the same compound?
A: Its value is “activated”.

Q: What about the “inhibition of luciferase activity” value (luciferase) of the same compound?
A: The value was “no inhibition”.
